Laboratory results taken from patent US20240252463A1, “METHODS OF TREATING FIBROTIC PATHOLOGIES” (Mayo Foundation for Medical Education and Research, priority 2018, published 2024).
Where a name gives a salt, the structure may show the parent alone. Read-outs that look alike come from different tables or passages of the source.

Experiments:
[1] = tested on: αSMA; test: αSMA intensity (fibroblast activation) in IPF patient-derived lung fibroblasts + TGFβ; assay type: cell-based, human; details: Homo sapiens, SMA, 1 μM + TGFβ, treated for 72 hours
Experimental: (§1) ImmunofluorescenceMicroscopy: Cells were plated into 96 well plates (Corning 3603) in their specific growth media and allowed to attach (8 hours). Media was then exchanged for the indicated conditions for each experiment. Cells were fixed in 3.7% formalin (Sigma-Aldrich), permeabilized in 0.25% Triton X-100 (Sigma-Aldrich) and then blocked with 1% BSA for 1 h. Cells or tissue sections were incubated overnight with mouse monoclonal antibody against αSMA (Sigma-Aldrich F3777), and/or a rabbit monoclonal antibody against YAP/TAZ (Cell Signaling D24E4) diluted 1:200 in PBS with 1% BSA. Cells were then washed and exposed to flourescence-conjugated secondary antibodies (Invitrogen) diluted 1:1000 and DAPI (Thermo Fisher Scientific). Images were taken with a Cytation5 (BioTek) microscope. For scoring αSMA positive cells (FIG. 3b), an observer blinded to the treatment conditions counted αSMA-positive cells using a visual threshold for bright fibrous staining; a minimum of 200 cells was counted for each condition. YAP/TAZ localization was quantified (FIG. 2, 6, 8) using Gen5 (Biotek) software. Images were taken at 4× magnification of both DAPI and YAP/TAZ staining. […] Quantification of double positive (YAP/TAZ and αSMA) cells from lung tissue sections (FIG. 4d) was performed similarly; however separate thresholds were established for both YAP/TAZ and αSMA. A minimum of 4000 cells was quantified for each mouse.

[2] = tested on: human dermal fibroblasts; test: Profibrotic gene expression in human dermal fibroblasts +/- TGFβ; assay type: cell-based; details: 24 hours +/− 2 ng/mL TGFβ
Experimental: Human dermal fibroblasts treated for 24 hours+/−2 ng/mL TGFβ and D1 agonists: DHX and A68930 prior to RNA isolation. N=2. For all other in vitro experiments, cells were treated as indicated prior to RNA isolation using RNeasy Plus Mini Kit (Qiagen) according to manufacturer's instructions. Isolated RNA (250 ng) was then used to synthesize cDNA using SuperScript VILO (Invitrogen). Quantitative PCR was performed using FastStart Essential DNA Green Master (Roche) and analyzed using a LightCycler 96 (Roche). Data are expressed as a fold change by ΔΔCt relative to GAPDH. For in vivo experiments, tissue was immediately frozen, and stored at −80° C. RNA isolation, cDNA synthesis, and qPCR analysis were performed as above.

[3] = tested on: YAP/TAZ; test: YAP/TAZ nuclear localization (immunofluorescence, automated imaging) in IPF patient-derived lung fibroblasts; assay type: cell-based, human
Experimental: 27A. […] IPF patient-derived lung fibroblasts cells treated 2 hours prior to fixation with diverse dopaminergic agonists (10 μM). N=4 different patient samples. % nuclear localization of YAP/TAZ was determined using automated imaging software. Scale bar represents 100 μm. 27C. cAMP measured in IPF patient-derived fibroblasts treated for 20 minutes with DHX. N=3. 27E.
as §1

[4] = tested on: αSMA+ stress fibers; test: TGFβ-induced αSMA+ stress fiber formation; assay type: cell-based, human; details: TGFβ 48 hours, then dopamine 1 μM + TGFβ 24 hours
Experimental: ImmunofluorescenceMicroscopy: Cells were plated into 96 well plates (Corning 3603) in their specific growth media and allowed to attach (8 hours). Media was then exchanged for the indicated conditions for each experiment. Cells were fixed in 3.7% formalin (Sigma-Aldrich), permeabilized in 0.25% Triton X-100 (Sigma-Aldrich) and then blocked with 1% BSA for 1 h. Cells or tissue sections were incubated overnight with mouse monoclonal antibody against αSMA (Sigma-Aldrich F3777), and/or a rabbit monoclonal antibody against YAP/TAZ (Cell Signaling D24E4) diluted 1:200 in PBS with 1% BSA.

[5] = tested on: IPF patient derived fibroblasts; test: Traction Force Microscopy of IPF patient derived fibroblasts; assay type: cell-based, human; details: IPF fibroblasts on 6.4 kPa matrices
Experimental: Traction Force Microscopy: Traction analysis was conducted as previously described. Briefly, polyacrylamide substrates with shear moduli of 6.4 kPa were prepared, and fluorescent sulfate-modified latex microspheres (0.2 μm, 505/515 ex/em) (FluoSpheres, Life Technologies) were conjugated to the gel surfaces after treatment with 1 mg ml^−1 of dopamine hydrochloride (Sigma-Aldrich) in 50 mM HEPES solution (pH 8.5). IPF patient derived fibroblasts were plated on the gels overnight and treated as indicated before traction force measurements. Images of gel surface-conjugated fluorescent beads were acquired for each cell before and after trypsinization using a Nikon ECLIPSE Ti microscope at ×10 magnification. Traction forces were estimated by measuring bead displacement fields and computing corresponding traction fields using TractionsForAll (freely distributed program that calculates 2-D tractions exerted by an adherent cell on its substrate).

[6] = tested on: YAP/TAZ; test: YAP/TAZ nuclear localization in IMR-90 and other mesenchymal cells (cardiac, dermal fibroblasts, hepatic stellate cells); assay type: cell-based, human; details: fibroblasts on stiff matrix (plastic), IMR-90 cells treated 2 hours (FIG. 2a)
Experimental: FIGS. 2A-2E Dopamine Receptor D1 agonism blocks YAP/TAZ nuclear localization. 2a. Selective agonists of dopamine receptor D1 with varying efficacy inhibit YAP/TAZ nuclear localization; this effect can be overcome by treatment with a DRD1 receptor antagonist (SCH 39166, 3 μM), (Dihydrexidine, 10 μM). IMR-90 cells treated 2 hours prior to fixation. N=4 (****p<0.0001 vs. 0.1% DMSO vehicle control). Scale bar represents 100 μm. 2b. Consistent with DRD1 expression, DHX inhibits YAP/TAZ only in fibroblasts (IPF-FBs) but not in epithelial (NHEpCs) or endothelial (NHMVECs) cells. N=4 (****p<0.0001 vs. 0.1% DMSO vehicle control) 2c. YAP/TAZ localization is induced through multiple ligands which stimulate receptors coupled to Galphαi/q/12, endothelin 1 (ET-1: 100 nM), lysophosphatidic acid (LPA: 10 μM), and serotonin (5-HT: 1 μM). In each case DHX treatment (10 μM) can reverse this effect on YAP/TAZ. IMR-90 cells plated densely onto plastic cell culture plates for 24 hours in media containing 0.1% FBS, treated for 2 hours prior to fixation. N=4 (****p<0.0001 vs. 0.1% DMSO vehicle control), (++++p<0.0001 vs. the respective stimulated agonist ET-1, LPA, or 5-HT). Scale bar represents 100 μm. 2d. cAMP measured in IPF patient-derived fibroblasts treated for 20 minutes with DHX (10 μM)+/−SCH 39166 (3 μM). N=3 (**p<0.01 vs. 0.1% DMSO vehicle control). 2e. Phosphorylation of YAP by Rho-kinase inhibitor Y27632 (20 μM), direct cAMP stimulator Forskolin (10 μM), or DHX (10 μM). IMR-90 cells cultured for 24 hours in media containing 0.1% FBS, treated 2 hours prior to fixation. N=3 (***p<0.001 vs. 0.1% DMSO vehicle control).
FIGS. 6A-6C DHX inhibits YAP/TAZ localization in fibroblasts from multiple tissues. 6a. Mesenchymal cells derived from lung (IMR-90 and IPF-FBs) hepatic stellate cells (HSC), human adult cardiac fibroblasts, (HACF) and human dermal fibroblasts (HDF) were plated densely (Confluent) or sparsely (Control and all remaining conditions) onto plastic cell culture plates for 24 hours in media containing 0.1% FBS, treated for 2 hours with Rho kinase inhibitor Y27632, adenylate cyclase activator forskolin and DHX. N=4, Cells that were positive for nuclear YAP/TAZ were quantified by automated image analysis. 6b. Time course for DHX inhibition of YAP/TAZ nuclear localization. IMR-90 cells, N=3 (***p<0.001 vs. 0.1% DMSO vehicle control). 6c. […] N=3.
as §1

[7] = tested on: cAMP; test: cAMP Assay (cAMP-Glo) in lung fibroblasts; assay type: cell-based, human; details: IMR-90 lung fibroblasts (FIG. 31F-31H)
Experimental: cAMP Assay: IPF patient derived fibroblasts were plated in EMEM containing 10% FBS overnight. […] 20 minutes prior to cell lysis media was removed and cells were treated with “induction buffer” containing nonselective phosphodiesterase inhibitors and the indicated concentration of compound(s). Luminescence was measured on a Flexstation 3 (Molecular Devices) plate reader.

[8] = tested on: YAP/TAZ-TEAD interactions; details: Ref. 19; cited from earlier work
[9] = patient sample IPF-1, read-out: αSMA intensity (% of DMSO control) IPF-1
[10] = patient sample IPF-2, read-out: αSMA intensity (% of DMSO control) IPF-2
[11] = patient sample IPF-3, read-out: αSMA intensity (% of DMSO control) IPF-3
[12] = patient sample IPF-4, read-out: αSMA intensity (% of DMSO control) IPF-4

| Molecule | activity at 1 µM [1, 9] [%] | activity at 1 µM [1, 10] [%] | activity at 1 µM [1, 11] [%] | activity at 1 µM [1, 12] [%] | antagonism of DHX's elevation of cAMP, inhibition of YAP/TAZ nuclear localization and of YAP/TAZ target genes [7] | further results |
| --- | --- | --- | --- | --- | --- | --- |
| NCC1OC(c2ccccc2)Cc2c1ccc(O)c2O (stereo not drawn) [A 68930•HCl] | 12.4 | 8.11 | 3.25 | 7.35 | – | profibrotic gene expression in human dermal fibroblasts [2]: blocks profibrotic gene expression; Nuclear localization (% of total cells) IPF-1 ([3]; patient sample IPF-1, 10 μM, treated 2 hours prior to fixation): 33.13 % of total cells; Nuclear localization (% of total cells) IPF-2 ([3]; patient sample IPF-2, 10 μM, treated 2 hours prior to fixation): 30.59 % of total cells; Nuclear localization (% of total cells) IPF-3 ([3]; patient sample IPF-3, 10 μM, treated 2 hours prior to fixation): 26.82 % of total cells; Nuclear localization (% of total cells) IPF-4 ([3]; patient sample IPF-4, 10 μM, treated 2 hours prior to fixation): 10.26 % of total cells |
| NCCc1ccc(O)c(O)c1 [Dopamine•HCl, Dopamine] | 35.2 | 8.09 | 26.6 | 5.37 | – | αSMA+ stress fiber formation in IPF-patient derived fibroblasts [4]: reverses αSMA+ stress fiber formation; YAP/TAZ nuclear localization, low density IPF fibroblasts ([3]; tissue culture plastic (FIG. 34A)): inhibits YAP/TAZ nuclear localization; contractile forces (traction force microscopy) [5]: attenuates IPF fibroblast contractility |
| Oc1ccc(C2CNCCc3c2cc(O)c(O)c3Cl)cc1 (stereo not drawn) [Fenoldopam•HCl, Fenoldopam] | 77.3 | 45.3 | 69.4 | 63.4 | – | YAP/TAZ nuclear localization [6]: reduced nuclear localization of YAP/TAZ |
| CN1CCc2ccccc2Cc2[nH]c3ccccc3c2CC1 [LE-300] | – | – | – | – | block DHX's elevation of cAMP | – |
| CN1CCc2cc(Cl)c(O)cc2[C@H]2c3ccccc3CC[C@@H]21 [SCH-39166] | – | – | – | – | block DHX's elevation of cAMP | – |
| verteporfin | – | – | – | – | – | effects in models of liver fibrosis [8]: limited beneficial effects |
